From the NIST ThermoML archive (doi:10.1016/j.jct.2011.11.021)
Numbers after ± are expanded uncertainties.

Test: activity coefficient (dimensionless); of the first substance listed, at infinite dilution; xn = mol fraction of the nth substance listed
Conditions: Liquid, Chromatography, x1 = 0

SMILES | activity coefficient (318.15 K) | activity coefficient (328.15 K) | activity coefficient (338.15 K) | activity coefficient (348.15 K) | activity coefficient (358.15 K) | activity coefficient (368.15 K)
CCCCCCCCCC [decane] + COCC[N+]1(C)CCOCC1.O=S(=O)([N-]S(=O)(=O)C(F)(F)F)C(F)(F)F | 192 ± 13 | 165 ± 11 | 145 ± 10 | 126 ± 9 | 111 ± 8 | 98.2 ± 6.7
CCOCC [diethyl ether] + COCC[N+]1(C)CCOCC1.O=S(=O)([N-]S(=O)(=O)C(F)(F)F)C(F)(F)F | 3.49 ± 0.24 | 3.46 ± 0.24 | 3.44 ± 0.23 | 3.41 ± 0.23 | 3.39 ± 0.23 | 3.37 ± 0.23
CC(C)OC(C)C [diisopropyl ether] + COCC[N+]1(C)CCOCC1.O=S(=O)([N-]S(=O)(=O)C(F)(F)F)C(F)(F)F | 10.1 ± 0.7 | 9.8 ± 0.67 | 9.55 ± 0.65 | 9.26 ± 0.63 | 8.98 ± 0.61 | 8.75 ± 0.6
CCCOCCC [dipropyl ether] + COCC[N+]1(C)CCOCC1.O=S(=O)([N-]S(=O)(=O)C(F)(F)F)C(F)(F)F | 10.7 ± 0.7 | 10.3 ± 0.7 | 9.92 ± 0.68 | 9.56 ± 0.65 | 9.2 ± 0.63 | 8.97 ± 0.61
CCO [ethanol] + COCC[N+]1(C)CCOCC1.O=S(=O)([N-]S(=O)(=O)C(F)(F)F)C(F)(F)F | 1.77 ± 0.12 | 1.61 ± 0.11 | 1.49 ± 0.1 | 1.36 ± 0.09 | 1.26 ± 0.08 | 1.17 ± 0.07
CCOC(C)=O [ethyl acetate] + COCC[N+]1(C)CCOCC1.O=S(=O)([N-]S(=O)(=O)C(F)(F)F)C(F)(F)F | 0.984 ± 0.062 | 1 ± 0.06 | 1.02 ± 0.06 | 1.03 ± 0.06 | 1.04 ± 0.07 | 1.06 ± 0.07
CCc1ccccc1 [ethylbenzene] + COCC[N+]1(C)CCOCC1.O=S(=O)([N-]S(=O)(=O)C(F)(F)F)C(F)(F)F | 3.27 ± 0.22 | 3.21 ± 0.22 | 3.16 ± 0.22 | 3.1 ± 0.21 | 3.04 ± 0.21 | 2.99 ± 0.2
CCCCCCC [heptane] + COCC[N+]1(C)CCOCC1.O=S(=O)([N-]S(=O)(=O)C(F)(F)F)C(F)(F)F | 54.4 ± 3.7 | 48.7 ± 3.3 | 43.8 ± 3 | 39.7 ± 2.7 | 36.2 ± 2.5 | 33.1 ± 2.3
C=CCCCC [hex-1-ene] + COCC[N+]1(C)CCOCC1.O=S(=O)([N-]S(=O)(=O)C(F)(F)F)C(F)(F)F | 16.5 ± 1.1 | 15.3 ± 1 | 14.3 ± 1 | 13.6 ± 0.9 | 12.9 ± 0.9 | 12.1 ± 0.8
CCCCCC [hexane] + COCC[N+]1(C)CCOCC1.O=S(=O)([N-]S(=O)(=O)C(F)(F)F)C(F)(F)F | 36.1 ± 2.5 | 32.6 ± 2.2 | 29.8 ± 2 | 27.2 ± 1.9 | 25 ± 1.7 | 23.1 ± 1.6
CO [methanol] + COCC[N+]1(C)CCOCC1.O=S(=O)([N-]S(=O)(=O)C(F)(F)F)C(F)(F)F | 1.28 ± 0.08 | 1.18 ± 0.08 | 1.1 ± 0.07 | 1.02 ± 0.06 | 0.95 ± 0.06 | 0.897 ± 0.057
CCCC(=O)OC [methyl butanoate] + COCC[N+]1(C)CCOCC1.O=S(=O)([N-]S(=O)(=O)C(F)(F)F)C(F)(F)F | 1.42 ± 0.09 | 1.44 ± 0.09 | 1.45 ± 0.1 | 1.45 ± 0.1 | 1.46 ± 0.1 | 1.48 ± 0.1
COC(C)=O [methyl ethanoate] + COCC[N+]1(C)CCOCC1.O=S(=O)([N-]S(=O)(=O)C(F)(F)F)C(F)(F)F | 0.684 ± 0.046 | 0.7 ± 0.047 | 0.714 ± 0.048 | 0.729 ± 0.048 | 0.74 ± 0.049 | 0.754 ± 0.05
CCC(=O)OC [methyl propanoate] + COCC[N+]1(C)CCOCC1.O=S(=O)([N-]S(=O)(=O)C(F)(F)F)C(F)(F)F | 0.949 ± 0.06 | 0.966 ± 0.061 | 0.982 ± 0.062 | 0.998 ± 0.062 | 1.01 ± 0.06 | 1.03 ± 0.06
CC1CCCCC1 [methylcyclohexane] + COCC[N+]1(C)CCOCC1.O=S(=O)([N-]S(=O)(=O)C(F)(F)F)C(F)(F)F | 27.6 ± 1.9 | 24.8 ± 1.7 | 22.8 ± 1.6 | 20.9 ± 1.4 | 19.2 ± 1.3 | 17.7 ± 1.2
CCCCCCCCC [nonane] + COCC[N+]1(C)CCOCC1.O=S(=O)([N-]S(=O)(=O)C(F)(F)F)C(F)(F)F | 125 ± 9 | 108 ± 7 | 95.8 ± 6.6 | 85.6 ± 5.9 | 76.3 ± 5.2 | 68.7 ± 4.7
C=CCCCCCC [oct-1-ene] + COCC[N+]1(C)CCOCC1.O=S(=O)([N-]S(=O)(=O)C(F)(F)F)C(F)(F)F | 38.6 ± 2.6 | 34.9 ± 2.4 | 32.5 ± 2.2 | 30.1 ± 2.1 | 27.5 ± 1.9 | 25.9 ± 1.8
CCCCCCCC [octane] + COCC[N+]1(C)CCOCC1.O=S(=O)([N-]S(=O)(=O)C(F)(F)F)C(F)(F)F | 82.1 ± 5.6 | 71.6 ± 4.9 | 64.6 ± 4.4 | 58.4 ± 4 | 51.7 ± 3.5 | 47.3 ± 3.2
CCCC(C)=O [pentan-2-one] + COCC[N+]1(C)CCOCC1.O=S(=O)([N-]S(=O)(=O)C(F)(F)F)C(F)(F)F | 0.88 ± 0.056 | 0.89 ± 0.057 | 0.9 ± 0.057 | 0.91 ± 0.058 | 0.918 ± 0.058 | 0.925 ± 0.058
CCC(=O)CC [pentan-3-one] + COCC[N+]1(C)CCOCC1.O=S(=O)([N-]S(=O)(=O)C(F)(F)F)C(F)(F)F | 0.895 ± 0.057 | 0.912 ± 0.058 | 0.927 ± 0.059 | 0.941 ± 0.059 | 0.952 ± 0.06 | 0.967 ± 0.061
CCCCC [pentane] + COCC[N+]1(C)CCOCC1.O=S(=O)([N-]S(=O)(=O)C(F)(F)F)C(F)(F)F | 25 ± 1.7 | 22.5 ± 1.5 | 20.6 ± 1.4 | 19 ± 1.3 | 17.4 ± 1.2 | 16.3 ± 1.1
CCCO [propan-1-ol] + COCC[N+]1(C)CCOCC1.O=S(=O)([N-]S(=O)(=O)C(F)(F)F)C(F)(F)F | 2.39 ± 0.16 | 2.14 ± 0.15 | 1.96 ± 0.13 | 1.79 ± 0.12 | 1.63 ± 0.11 | 1.52 ± 0.1
CC(C)O [propan-2-ol] + COCC[N+]1(C)CCOCC1.O=S(=O)([N-]S(=O)(=O)C(F)(F)F)C(F)(F)F | 2.17 ± 0.15 | 1.95 ± 0.13 | 1.79 ± 0.12 | 1.63 ± 0.11 | 1.5 ± 0.1 | 1.4 ± 0.09
c1ccncc1 [pyridine] + COCC[N+]1(C)CCOCC1.O=S(=O)([N-]S(=O)(=O)C(F)(F)F)C(F)(F)F | 0.64 ± 0.044 | 0.644 ± 0.044 | 0.648 ± 0.044 | 0.651 ± 0.045 | 0.654 ± 0.045 | 0.658 ± 0.045
C=Cc1ccccc1 [styrene] + COCC[N+]1(C)CCOCC1.O=S(=O)([N-]S(=O)(=O)C(F)(F)F)C(F)(F)F | 1.77 ± 0.12 | 1.77 ± 0.12 | 1.76 ± 0.12 | 1.76 ± 0.12 | 1.76 ± 0.12 | 1.76 ± 0.12
C1CCOC1 [tetrahydrofuran] + COCC[N+]1(C)CCOCC1.O=S(=O)([N-]S(=O)(=O)C(F)(F)F)C(F)(F)F | 0.858 ± 0.055 | 0.867 ± 0.055 | 0.873 ± 0.056 | 0.882 ± 0.056 | 0.888 ± 0.057 | 0.895 ± 0.057
c1ccsc1 [thiophene] + COCC[N+]1(C)CCOCC1.O=S(=O)([N-]S(=O)(=O)C(F)(F)F)C(F)(F)F | 1.09 ± 0.07 | 1.08 ± 0.07 | 1.08 ± 0.07 | 1.08 ± 0.07 | 1.08 ± 0.07 | 1.08 ± 0.07
Cc1ccccc1 [toluene] + COCC[N+]1(C)CCOCC1.O=S(=O)([N-]S(=O)(=O)C(F)(F)F)C(F)(F)F | 2.01 ± 0.14 | 2.01 ± 0.14 | 2 ± 0.14 | 1.99 ± 0.14 | 1.98 ± 0.13 | 1.97 ± 0.13
O [water] + COCC[N+]1(C)CCOCC1.O=S(=O)([N-]S(=O)(=O)C(F)(F)F)C(F)(F)F | 2.49 ± 0.17 | 2.17 ± 0.15 | 1.94 ± 0.13 | 1.73 ± 0.12 | 1.55 ± 0.1 | 1.41 ± 0.09
